Organism: Rattus norvegicus
Test: Open TG-GATES - Regimen: Single
Assay type: toxicity, organism-based, Sprague-Dawley
Set-up: regimen Single, gender Male, age 6 weeks
Conditions: in vivo, po, route gavage; for APTT / Bas / Eos / Fbg / Hb / Ht / Lym / MCH / MCHC / MCV / Mono / Neu / PT / Plat / RBC / Ret / WBC: tissue Blood; for KIDNEY_L / KIDNEY_R / KIDNEY_TOTAL: tissue Kidney; for LIVER: tissue Liver; for A/G / ALP / ALT / AST / BUN / CRE / Ca / Cl / DBIL / GLC / IP / K / LDH / Na / PL / RALB / TBIL / TC / TG / TP / gamma-GTP: tissue Plasma
[1] = 0 mg/kg, 3 h, dose level Control
[2] = 0 mg/kg, 6 h, dose level Control
[3] = 0 mg/kg, 9 h, dose level Control
[4] = 0 mg/kg, 24 h, dose level Control
[5] = 300 mg/kg, 24 h, dose level Low

## COc1ccc(O)c(C(C)(C)C)c1.COc1ccc(O)cc1C(C)(C)C [BUTYLATED HYDROXYANISOLE]
[1]
  TERMINAL_BW: 208.5 g
  APTT: 13.3 s
  Bas: 0.2%
  Eos: 0.7%
  Fbg: 265.2 mg/dL
  Hb: 13.1 g/dL
  Ht: 38.4%
  Lym: 74%
  MCH: 21.2 pg
  MCHC: 34%
  MCV: 62.4 fL
  Mono: 3%
  Neu: 21.1%
  PT: 11.5 s
  Plat: 132.5 x10_4/uL
  RBC: 616.8 x10_4/ul
  Ret: 7.8%
  WBC: 93.2 x10_2/uL
  KIDNEY_L: 0.9 g
  KIDNEY_R: 0.8 g
  KIDNEY_TOTAL: 1.7 g
  LIVER: 9 g
  A/G: 0.8
  ALP: 1750 IU/L
  ALT: 41.4 IU/L
  AST: 76.4 IU/L
  BUN: 10.6 mg/dL
  CRE: 0.2 mg/dL
  Ca: 11.2 mg/dL
  Cl: 106.4 meq/L
  DBIL: 0.03 mg/dL
  GLC: 171.8 mg/dL
  IP: 8.9 mg/dL
  K: 4.4 meq/L
  LDH: 72.2 IU/L
  Na: 141 meq/L
  PL: 153.8 mg/dL
  RALB: 2.6 g/dL
  TBIL: 0.076 mg/dL
  TC: 80.8 mg/dL
  TG: 84.6 mg/dL
  TP: 5.6 g/dL
  gamma-GTP: 1.2 IU/L
[2]
  TERMINAL_BW: 202.6 g
  APTT: 16.8 s
  Bas: 0.2%
  Eos: 0.7%
  Fbg: 263 mg/dL
  Hb: 13.3 g/dL
  Ht: 39%
  Lym: 75.4%
  MCH: 21.3 pg
  MCHC: 34.2%
  MCV: 62.2 fL
  Mono: 2%
  Neu: 20.9%
  PT: 12.6 s
  Plat: 145.4 x10_4/uL
  RBC: 626.6 x10_4/ul
  Ret: 7.6%
  WBC: 97.7 x10_2/uL
  KIDNEY_L: 0.9 g
  KIDNEY_R: 0.9 g
  KIDNEY_TOTAL: 1.8 g
  LIVER: 8.1 g
  A/G: 0.8
  ALP: 1507 IU/L
  ALT: 33.8 IU/L
  AST: 67.8 IU/L
  BUN: 7.2 mg/dL
  CRE: 0.2 mg/dL
  Ca: 10.9 mg/dL
  Cl: 109 meq/L
  DBIL: 0.026 mg/dL
  GLC: 179 mg/dL
  IP: 10 mg/dL
  K: 4.1 meq/L
  LDH: 54.8 IU/L
  Na: 142.6 meq/L
  PL: 127.8 mg/dL
  RALB: 2.6 g/dL
  TBIL: 0.074 mg/dL
  TC: 73.8 mg/dL
  TG: 58.2 mg/dL
  TP: 5.7 g/dL
  gamma-GTP: 1.2 IU/L
[3]
  TERMINAL_BW: 203.6 g
  APTT: 15.7 s
  Bas: 0.2%
  Eos: 0.8%
  Fbg: 263 mg/dL
  Hb: 12.9 g/dL
  Ht: 37.6%
  Lym: 74.4%
  MCH: 21.1 pg
  MCHC: 34.2%
  MCV: 61.5 fL
  Mono: 2.8%
  Neu: 21%
  PT: 12.8 s
  Plat: 142.3 x10_4/uL
  RBC: 612 x10_4/ul
  Ret: 8.4%
  WBC: 68.2 x10_2/uL
  KIDNEY_L: 0.9 g
  KIDNEY_R: 0.8 g
  KIDNEY_TOTAL: 1.7 g
  LIVER: 7.6 g
  A/G: 0.9
  ALP: 1620.2 IU/L
  ALT: 30.8 IU/L
  AST: 66.6 IU/L
  BUN: 8.8 mg/dL
  CRE: 0.2 mg/dL
  Ca: 10.9 mg/dL
  Cl: 106.2 meq/L
  DBIL: 0.022 mg/dL
  GLC: 177.4 mg/dL
  IP: 10.2 mg/dL
  K: 4.1 meq/L
  LDH: 61.6 IU/L
  Na: 141.8 meq/L
  PL: 128.2 mg/dL
  RALB: 2.6 g/dL
  TBIL: 0.088 mg/dL
  TC: 76.8 mg/dL
  TG: 39.4 mg/dL
  TP: 5.6 g/dL
  gamma-GTP: 1.2 IU/L
[4]
  TERMINAL_BW: 217.3 g
  APTT: 15.1 s
  Bas: 0.2%
  Eos: 0.7%
  Fbg: 275.6 mg/dL
  Hb: 13 g/dL
  Ht: 38%
  Lym: 77%
  MCH: 20.9 pg
  MCHC: 34.2%
  MCV: 61.2 fL
  Mono: 2.3%
  Neu: 19.1%
  PT: 12.2 s
  Plat: 136.6 x10_4/uL
  RBC: 620.2 x10_4/ul
  Ret: 7%
  WBC: 82.5 x10_2/uL
  KIDNEY_L: 0.9 g
  KIDNEY_R: 0.9 g
  KIDNEY_TOTAL: 1.8 g
  LIVER: 9.7 g
  A/G: 0.8
  ALP: 1843.2 IU/L
  ALT: 40 IU/L
  AST: 70.8 IU/L
  BUN: 14.6 mg/dL
  CRE: 0.2 mg/dL
  Ca: 11.2 mg/dL
  Cl: 106.4 meq/L
  DBIL: 0.018 mg/dL
  GLC: 173 mg/dL
  IP: 7.7 mg/dL
  K: 4.3 meq/L
  LDH: 63.2 IU/L
  Na: 143.6 meq/L
  PL: 136.6 mg/dL
  RALB: 2.6 g/dL
  TBIL: 0.066 mg/dL
  TC: 77.6 mg/dL
  TG: 75.8 mg/dL
  TP: 5.7 g/dL
  gamma-GTP: 1 IU/L
300 mg/kg, 3 h, dose level Low
  TERMINAL_BW: 204.6 g
  APTT: 16.4 s
  Bas: 0.2%
  Eos: 0.6%
  Fbg: 281.2 mg/dL
  Hb: 13.8 g/dL
  Ht: 39.9%
  Lym: 75%
  MCH: 21.7 pg
  MCHC: 34.5%
  MCV: 63.1 fL
  Mono: 2.5%
  Neu: 20.7%
  PT: 12 s
  Plat: 133.9 x10_4/uL
  RBC: 633.4 x10_4/ul
  Ret: 8.1%
  WBC: 97.5 x10_2/uL
  KIDNEY_L: 0.9 g
  KIDNEY_R: 0.9 g
  KIDNEY_TOTAL: 1.8 g
  LIVER: 8.5 g
  A/G: 0.8
  ALP: 1752.8 IU/L
  ALT: 41.8 IU/L
  AST: 75.4 IU/L
  BUN: 10.2 mg/dL
  CRE: 0.2 mg/dL
  Ca: 11.3 mg/dL
  Cl: 107.8 meq/L
  DBIL: 0.052 mg/dL
  GLC: 173.2 mg/dL
  IP: 9.1 mg/dL
  K: 3.9 meq/L
  LDH: 75.6 IU/L
  Na: 141.8 meq/L
  PL: 154.4 mg/dL
  RALB: 2.7 g/dL
  TBIL: 0.082 mg/dL
  TC: 80.8 mg/dL
  TG: 149.4 mg/dL
  TP: 5.8 g/dL
  gamma-GTP: 1 IU/L
300 mg/kg, 6 h, dose level Low
  TERMINAL_BW: 202.1 g
  APTT: 16.2 s
  Bas: 0.2%
  Eos: 0.7%
  Fbg: 257.2 mg/dL
  Hb: 13.3 g/dL
  Ht: 39.1%
  Lym: 72%
  MCH: 21.2 pg
  MCHC: 33.9%
  MCV: 62.4 fL
  Mono: 2.5%
  Neu: 23.7%
  PT: 12.3 s
  Plat: 131.2 x10_4/uL
  RBC: 627.4 x10_4/ul
  Ret: 7.7%
  WBC: 91.5 x10_2/uL
  KIDNEY_L: 0.9 g
  KIDNEY_R: 0.9 g
  KIDNEY_TOTAL: 1.8 g
  LIVER: 7.9 g
  A/G: 0.9
  ALP: 1829.2 IU/L
  ALT: 38 IU/L
  AST: 72.8 IU/L
  BUN: 9.4 mg/dL
  CRE: 0.2 mg/dL
  Ca: 11.1 mg/dL
  Cl: 107.8 meq/L
  DBIL: 0.03 mg/dL
  GLC: 172.4 mg/dL
  IP: 10.3 mg/dL
  K: 4.2 meq/L
  LDH: 60.2 IU/L
  Na: 143.2 meq/L
  PL: 134.4 mg/dL
  RALB: 2.6 g/dL
  TBIL: 0.074 mg/dL
  TC: 75 mg/dL
  TG: 65.8 mg/dL
  TP: 5.7 g/dL
  gamma-GTP: 1.4 IU/L
300 mg/kg, 9 h, dose level Low
  TERMINAL_BW: 199.4 g
  APTT: 16.9 s
  Bas: 0.2%
  Eos: 0.7%
  Fbg: 273.6 mg/dL
  Hb: 13.4 g/dL
  Ht: 39.1%
  Lym: 76.3%
  MCH: 20.7 pg
  MCHC: 34.3%
  MCV: 60.5 fL
  Mono: 1.9%
  Neu: 20.1%
  PT: 13.1 s
  Plat: 145.3 x10_4/uL
  RBC: 647.4 x10_4/ul
  Ret: 7.4%
  WBC: 69.4 x10_2/uL
  KIDNEY_L: 0.9 g
  KIDNEY_R: 0.9 g
  KIDNEY_TOTAL: 1.7 g
  LIVER: 7.5 g
  A/G: 0.8
  ALP: 1688.6 IU/L
  ALT: 30.6 IU/L
  AST: 66.4 IU/L
  BUN: 8.2 mg/dL
  CRE: 0.2 mg/dL
  Ca: 10.8 mg/dL
  Cl: 108 meq/L
  DBIL: 0.026 mg/dL
  GLC: 163.8 mg/dL
  IP: 10.1 mg/dL
  K: 4 meq/L
  LDH: 48.4 IU/L
  Na: 142.8 meq/L
  PL: 134.6 mg/dL
  RALB: 2.6 g/dL
  TBIL: 0.088 mg/dL
  TC: 77.4 mg/dL
  TG: 66 mg/dL
  TP: 5.6 g/dL
  gamma-GTP: 1.4 IU/L
[5]
  TERMINAL_BW: 215.1 g
  APTT: 15.4 s
  Bas: 0.3%
  Eos: 0.7%
  Fbg: 256.6 mg/dL
  Hb: 13 g/dL
  Ht: 38%
  Lym: 82.1%
  MCH: 21.3 pg
  MCHC: 34.1%
  MCV: 62.3 fL
  Mono: 2.3%
  Neu: 13.9%
  PT: 12 s
  Plat: 142.8 x10_4/uL
  RBC: 610.6 x10_4/ul
  Ret: 6.9%
  WBC: 97.1 x10_2/uL
  KIDNEY_L: 0.9 g
  KIDNEY_R: 0.9 g
  KIDNEY_TOTAL: 1.8 g
  LIVER: 9.6 g
  A/G: 0.9
  ALP: 1667 IU/L
  ALT: 47.2 IU/L
  AST: 79 IU/L
  BUN: 15 mg/dL
  CRE: 0.2 mg/dL
  Ca: 11.4 mg/dL
  Cl: 106.4 meq/L
  DBIL: 0.028 mg/dL
  GLC: 166.4 mg/dL
  IP: 7.8 mg/dL
  K: 4.2 meq/L
  LDH: 63 IU/L
  Na: 143.2 meq/L
  PL: 135.2 mg/dL
  RALB: 2.7 g/dL
  TBIL: 0.078 mg/dL
  TC: 78.2 mg/dL
  TG: 110.2 mg/dL
  TP: 5.7 g/dL
  gamma-GTP: 1 IU/L

— ChEMBL document CHEMBL3885861, “Open TG-GATES”
